Entries after “also recorded” stand apart in the source; their conditions may differ. Like-named read-outs stand apart in the source and are kept apart here.
Experiments:
[1] = test system: normal cells; details: in words; no ref at the sentence; cited from earlier work
Text: Development of metastasis provides the most serious challenge for cancer treatment and is responsible for most cancer related deaths. A number of recent studies have shown that ectopically expressed LPL is largely responsible for this process. Therefore, LPL presents itself as a promising target for drug development to prevent the metastatic activity of the cancer cells. It is also well known that inhibition of fascin, another actin-bundling protein, is a viable approach to block tumor metastasis.

[2] = biological target: T1, Ca^2+-bound EF (EF domain of LPL) (Homo sapiens, UniProt P13796); assay: Surface plasmon resonance (SPR), peptides binding to immobilized EF
T1 construct: His-tag (with TEV protease cleavage site) (N, cleaved yes); made in house; host or cells: E. coli BL21 (DE3)
T1 sequence (P13796 1-82 limits assumed): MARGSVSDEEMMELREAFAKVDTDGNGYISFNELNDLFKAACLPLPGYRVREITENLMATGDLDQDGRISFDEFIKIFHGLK
Procedure: The binding between Ca^2+-bound LPL-EF and a synthetic peptide corresponding to H5 (Ac-[…]-NH2) was evaluated by SPR using a BIAcore X100 instrument (GE Healthcare) and was compared to other peptides including the cytotoxic peptide melittin, and the CaM-target CaMKI and smMLCK peptides. Peptides used here were purchased as synthetic peptides with >95% purity from Genscript (San Diego, CA). The EF construct was immobilized via its sole cysteine residue (Cys42) onto a CM5 sensor chip (GE Healthcare) using thiol-coupling. The running buffer contained 10 mM Tris-HCl pH 7.5, 150 mM KCl, 1 mM CaCl2, and 0.005% (v/v) Tween-20. Different concentrations of the peptide sample were injected at a flow rate of 30 μL/min with a contact time of 1 min at 25 °C. The BIAevaluation software 2.0 (GE Healthcare) was used to process the SPR sensorgrams and for curve-fitting to obtain the dissociation constants (Kd’s). Two different concentrations in each experiment were injected twice to obtain the fitting errors (SEM).
SPR measurements for the interactions between EF and various peptides. The affinity fittings […]
The response units at 4 seconds after starting the injection were used for CaMKIp due to the nonspecific binding seen later during the injection, while the response units at 4 seconds before stopping the injection were used for the […]
(1 picture or pasted object on this page, not shown here)

[3] = test system: ^15N-labeled ABD2 (residues 384–627); assay: NMR titration of ^15N-labeled ABD2 with peptide; type: binding, human; details: synthetic H5 peptide titrated into ^15N-labeled ABD2 (Supplementary Fig. S5b)
[4] = test system: ^15N-labeled EF; assay: HSQC NMR titration of ^15N-labeled EF with peptide; type: binding, human; details: H5 peptide added to ^15N-labeled EF (Supplementary Fig. S8)
Procedure: The calcium-free samples of EF-H5, EF-H5-S5E, and EF contained 0.5–1.0 mM ^15N- or ^13C,^15N-labeled protein, 100 mM KCl, 20 mM Bis-Tris (pH 6.8), 1 mM EDTA, 0.03% NaN3, 10 mM ^2H-labelled dithiothreitol (^2H-DTT), and 0.5 mM 2,2-dimethyl-2- silapentane-5-sulfonate (DSS) in 99.99% D2O or 10% D2O/90% H2O. The calcium free non-labeled LPL-EF was also prepared in 99.99% D2O with the same buffer components. The calcium-bound form of those constructs were prepared in buffer containing ~1 mM ^15N- or ^13C,^15N-labelled protein, 100 mM KCl, 20 mM Bis-Tris (pH 6.8), 5 mM CaCl2, 0.03% NaN3, 0.5 mM DSS, and 10 mM ^2H-DTT in 99.99% D2O or 10% D2O/90% H2O. The calcium-bound non-labeled LPL-EF-H5 was also prepared in 99.99% D2O with the same buffer ingredients. DSS was used as a reference to obtain ^1H, ^15N and ^13C chemical shifts. All NMR spectra were processed with NMRPipe[71] and analyzed using NMRView[72].
All NMR experiments were performed with a Bruker Avance 700 or 600 MHz spectrometer at 25 °C. […] All NOESY experiments including three-dimensional ^15N-edited NOESY-HSQC and ^13C-edited NOESY-HSQC, and two-dimensional NOESY were measured with a mixing time of 120 ms. {^1H}-^15N heteronuclear NOE data were obtained using a 5 sec train of 120° proton pulses.

[5] = EF immobilized via Cys42 on CM5 chip, 10 mM Tris-HCl pH 7.5, 150 mM KCl, 1 mM CaCl2, 0.005% Tween-20, 25 °C, response at 4 seconds before stopping the injection, fitting error SEM, read-out: KD

Compound | Hemolysis and toxicity [1] | Kd [2, 5] | Interaction with ABD2 (chemical shift changes) [3] | Kd ([2]; Ca^2+-bound EF, SPR, pH 7.5, 25 °C, read-out: Kd of H5 peptide for Ca^2+-bound EF (order of magnitude, discussion)) | HSQC spectral effect of H5 peptide on ^15N-labeled EF [4]
CC[C@H](C)[C@H](NC(=O)CN)C(=O)NCC(=O)N[C@@H](C)C(=O)N[C@H](C(=O)N[C@@H](CC(C)C)C(=O)N[C@@H](CCCCN)C(=O)N[C@H](C(=O)N[C@@H](CC(C)C)C(=O)N[C@H](C(=O)N[C@H](C(=O)NCC(=O)N[C@@H](CC(C)C)C(=O)N1CCC[C@H]1C(=O)N[C@@H](C)C(=O)N[C@@H](CC(C)C)C(=O)N[C@H](C(=O)N[C@@H](CO)C(=O)N[C@@H](Cc1c[nH]c2ccccc12)C(=O)N[C@H](C(=O)N[C@@H](CCCCN)C(=O)N[C@@H](CCCNC(=N)N)C(=O)N[C@@H](CCCCN)C(=O)N[C@@H](CCCNC(=N)N)C(=O)N[C@@H](CCC(N)=O)C(=O)N[C@@H](CCC(N)=O)C(N)=O)[C@@H](C)CC)[C@@H](C)CC)[C@@H](C)O)[C@@H](C)O)C(C)C)C(C)C [Melittin, reference compound] | strong hemolytic peptide that is toxic to all normal cells | 158 nM |  |  | 
Ac-STDVAKTFRKAINKKEGI-NH2 [H5p] |  | 3520 nM | no chemical shift changes were observed, indicating no interaction | 1000 nM | intermediate exchange and resultant line broadening; also recorded: did not produce the same spectrum as EF-H5
